Patent US20110268653A1, “Compositions and Methods Related to Acid Stable Lipid Nanospheres” (The Board of Regents of the University of Texas System, priority 2010, published 2011)

Row | melting point | Structure (SMILES)
1 | 107 to 111 °C | CCCCCCCCCCCCCCCCCC(=O)N1C(CCCCCCCCCCCCCCCCC)NC(=O)CC1C(=O)O (stereo not shown) [ALA17, 17, 2-Heptadecyl-6-oxo-3-stearoylhexahydropyrimidine-4-carboxylic acid]
2 | 105 to 109 °C | CCCCCCCCCCCCCCCCCC(=O)N1C(CCCCCCCCCCC)NC(=O)CC1C(=O)O (stereo not shown) [Lipid 1e, 6-Oxo-3-stearoyl-2-undecylhexahydropyrimidine-4-carboxylic acid]
3 | 104 to 107 °C | CCCCCCCCCCCCCCCCCC1NC(=O)CC(C(=O)O)N1C(=O)CCCCCCCCCCC (stereo not shown) [Lipid 1f, 3-Dodecanoyl-2-heptadecyl-6-oxohexahydropyrimidine-4-carboxylic acid]

The next lines start with the molecule.

Row | Structure (SMILES) | melting point
4 | CCCCCC(=O)N1C(CCCCC)NC(=O)CC1C(=O)O (stereo not shown) [Lipid 1a, 3-Hexanoyl-6-oxo-2-pentylhexahydropyrimidine-4-carboxylic acid] | 55 to 56 °C
5 | CCCCCCCCCCCC(=O)N1C(CCCCC)NC(=O)CC1C(=O)O (stereo not shown) [Lipid 1b, 3-Dodecanoyl-6-oxo-2-pentylhexahydropyrimidine-4-carboxylic acid] | 118 to 120 °C
6 | CCCCCCCCCCCC1NC(=O)CC(C(=O)O)N1C(=O)CCCCC (stereo not shown) [Lipid 1c, 3-Hexanoyl-6-oxo-2-undecylhexahydropyrimidine-4-carboxylic acid] | 106 to 107 °C
7 | CCCCCCCCCCCC(=O)N1C(CCCCCCCCCCC)NC(=O)CC1C(=O)O (stereo not shown) [Lipid 1d, 3-Dodecanoyl-6-oxo-2-undecylhexahydropyrimidine-4-carboxylic acid] | 110 to 112 °C
